This passage reports IC50 results from patent US20230114674A1, “ISOINDOLINE DERIVATIVE, AND PHARMACEUTICAL COMPOSITION AND USE THEREOF” (KANGPU BIOPHARMACEUTICALS, LTD., priority 2020, published 2023).

The structures appear in SMILES notation.

In general, IC50 refers to the point on the concentration scale where inhibition reaches its midpoint. Low values mean inhibition by little substance, high ones a need for much substance.

The subject of the test is MM.1S myeloma cells. Description: Cell proliferation inhibition test by MTS assay. Type of test: cell-based. The conditions noted are these: Homo sapiens, MM1.S, 72 hours drug treatment, 15,000 cells/well, 96-well plate. How it is done:
Experimental Method for Cell Proliferation Inhibition Test by MTS Assay:
Proliferating MM.1S myeloma cells (ATCC, Cat #CRL-2974) were resuspended in RPMI-640 medium (Gibco, Cat #A10491-01) and counted using an automated cell counter. The cell suspension was diluted to the needed density and 100 μl (15,000 cells) of the cell suspension was plated per well in a 96-well plate. The plate was cultured in a 37° C., 5% CO2 incubator for 24 hours. On the day of administration, each compound was formulated into 20 mM stock solution with DMSO (Sigma, Cat #D2650), diluted with a medium to the needed concentration, and then added to the corresponding wells for the cell proliferation inhibition test with a drug of 4-fold serial dilution with 10 points. The final concentration of DMSO was 0.5%. After drug addition, the 96-well plate was cultured in a 37° C., 5% CO2 incubator for 72 hours. Then, 20 μl of MTS (Promega, Cat #G3581) was added to each well and the plate was cultured for 2 hours in a 37° C., 5% CO2 incubator, and then the absorbance at 490 nm of each well was recorded using an Ensight instrument. The reading of the cells at Day 0 was used as a negative control and the reading of cells with 0.5% DMSO at Day-3 was used as a positive control. Cell proliferation inhibition curve was plotted using GraphPad Prism 5 software and the IC50 value was calculated. Experiment results can be seen in Table 1.
For orientation: Tetrazolium dyes change colour on reduction, which living cells bring about.
On to `N#Cc1ncc(N2CCN(Cc3ccc(COc4cccc5c4CN([C@H]4CCC(=O)NC4=O)C5=O)cc3F)CC2)cc1C(F)(F)F` [CM-25], for which the midpoint of inhibition, the IC50, lay at 0.0291 nM. In other words, the picomolar range.

`N#Cc1ccc(N2CCN(Cc3ccc(COc4cccc5c4CN([C@H]4CCC(=O)NC4=O)C5=O)c(F)c3)CC2)cc1OCC1CC1` [CM-13] had a half-inhibitory concentration (IC50) of 0.0271 nM.

Regarding `N#Cc1ccc(N2CCN(Cc3ccc(COc4cccc5c4CN([C@H]4CCC(=O)NC4=O)C5=O)c(F)c3)CC2)c(F)c1` [CM-3, (S)-4-(4-(4-(((2-(2,6-dioxopiperidin-3-yl)-1-oxoisoindolin-4-yl)oxy)methyl)-3-fluorobenzyl)piperazin-1-yl)-3-fluorobenzonitrile], the IC50 came out at 0.0064 nM. This IC50 is about 4.2-fold lower than that of the molecule before. Next, `C=Cc1ccc(N2CCN(Cc3ccc(COc4cccc5c4CN([C@H]4CCC(=O)NC4=O)C5=O)c(F)c3)CC2)c(F)c1` [CM-38]: 1.21 nM; `NC(=O)c1ccc(N2CCN(Cc3ccc(COc4cccc5c4CN([C@H]4CCC(=O)NC4=O)C5=O)c(F)c3)CC2)cc1F` [CM-18, (S)-4-(4-(4-(((2-(2,6-dioxopiperidin-3-yl)-1-oxoisoindolin-4-yl)oxy)methyl)-3-fluorobenzyl)piperazin-1-yl)-2-fluorobenzamide]: 0.0188 nM; `[2H]C([2H])([2H])Oc1cc(N2CCN(Cc3ccc(COc4cccc5c4CN([C@H]4CCC(=O)NC4=O)C5=O)c(F)c3)CC2)ccc1C#N` [CM-15]: 0.0062 nM. On to `N#Cc1ccc(N2CCN(Cc3ccc(COc4cccc5c4CN([C@H]4CCC(=O)NC4=O)C5=O)c(F)c3)CC2)c(C(N)=O)c1` [CM-33], for which the IC50 turned out to be 0.0781 nM.

`N#Cc1ccc(N2CCN(Cc3ccc(COc4cccc5c4CN([C@H]4CCC(=O)NC4=O)C5=O)c(F)c3)CC2)c(Cl)c1` [CM-9] yielded an IC50 of 0.0136 nM. Next, `N#Cc1ccc(N2CCN(Cc3ccc(COc4cccc5c4CN([C@H]4CCC(=O)NC4=O)C5=O)c(F)c3)CC2)cc1F` [CM-5, (S)-4-(4-(4-(((2-(2,6-dioxopiperidin-3-yl)-1-oxoisoindolin-4-yl)oxy)methyl)-3-fluorobenzyl)piperazin-1-yl)-2-fluorobenzonitrile]: 0.0063 nM. As to `CCOc1nc(N2CCN(Cc3ccc(COc4cccc5c4CN([C@H]4CCC(=O)NC4=O)C5=O)cc3F)CC2)ccc1OC` [CM-26], 0.465 nM corresponded to half-maximal inhibition (IC50). For `N#Cc1ccc(N2CCN(Cc3ccc(COc4cccc5c4CN([C@H]4CCC(=O)NC4=O)C5=O)c(F)c3)CC2)cn1` [CM-28], inhibition was half-maximal at 0.102 nM (IC50). Next, `COc1cc(C#N)ccc1N1CCN(Cc2ccc(COc3cccc4c3CN([C@H]3CCC(=O)NC3=O)C4=O)c(F)c2)CC1` [CM-27]: 0.134 nM; `COc1cc(N2CCN(Cc3ccc(COc4cccc5c4CN([C@H]4CCC(=O)NC4=O)C5=O)c(F)c3)CC2)ccc1C#N` [CM-7, (S)-4-(4-(4-(((2-(2,6-dioxopiperidin-3-yl)-1-oxoisoindolin-4-yl)oxy)methyl)-3-fluorobenzyl)piperazin-1-yl)-2-methoxybenzonitrile]: 0.0054 nM; `CCc1cc(C#N)ccc1N1CCN(Cc2ccc(COc3cccc4c3CN([C@H]3CCC(=O)NC3=O)C4=O)c(F)c2)CC1` [CM-35]: 0.0962 nM. On to `N#Cc1ccc(N2CCN(Cc3ccc(COc4cccc5c4CN([C@H]4CCC(=O)NC4=O)C5=O)c(F)c3)CC2)cc1` [CM-10], for which 0.0105 nM corresponded to half-maximal inhibition (IC50). With `COc1cc(N2CCN(Cc3ccc(COc4cccc5c4CN([C@H]4CCC(=O)NC4=O)C5=O)cc3F)CC2)ccc1C#N` [CM-21] the figure was 0.0111 nM; with `O=C1CC[C@H](N2Cc3c(OCc4ccc(CN5CCN(c6ccc([N+](=O)[O-])cc6F)CC5)cc4F)cccc3C2=O)C(=O)N1` [CM-2, (S)-3-(4-((2-fluoro-4-((4-(2-fluoro-4-nitrophenyl)piperazin-1-yl)methyl)benzyl)oxy)-1-oxoisoindolin-2-yl)piperidine-2,6-dione], 0.0139 nM; with `C#Cc1ccc(N2CCN(Cc3ccc(COc4cccc5c4CN([C@H]4CCC(=O)NC4=O)C5=O)c(F)c3)CC2)c(F)c1` [CM-43], 0.576 nM.

In the case of `CCc1cc(N2CCN(Cc3ccc(COc4cccc5c4CN([C@H]4CCC(=O)NC4=O)C5=O)c(F)c3)CC2)ccc1C#N` [CM-41], 0.116 nM corresponded to half-maximal inhibition (IC50). Against the preceding molecule, the IC50 is about 5-fold lower. Consider `N#Cc1ccc(N2CCN(Cc3ccc(COc4cccc5c4CN([C@H]4CCC(=O)NC4=O)C5=O)cc3F)CC2)cc1F` [CM-20], for which the IC50 was 0.0132 nM. With `N#Cc1ccc(N2CCN(Cc3ccc(COc4cccc5c4CN([C@H]4CCC(=O)NC4=O)C5=O)c(F)c3)CC2)cc1C1CC1` [CM-37] the figure was 0.119 nM; with `O=C1CC[C@H](N2Cc3c(OCc4ccc(CN5CCN(c6ccc(C(F)(F)F)c(F)c6)CC5)cc4F)cccc3C2=O)C(=O)N1` [CM-16], 0.189 nM.

As to `CCOc1cc(C#N)ccc1N1CCN(Cc2ccc(COc3cccc4c3CN([C@H]3CCC(=O)NC3=O)C4=O)c(F)c2)CC1` [CM-36], it took 0.148 nM to reach half-maximal inhibition (IC50). With `N#Cc1ccc(N2CCN(Cc3ccc(COc4cccc5c4CN([C@H]4CCC(=O)NC4=O)C5=O)c(F)c3)CC2)c(C(F)(F)F)c1` [CM-8] the figure was 0.0211 nM. With `CCOc1cc(N2CCN(Cc3ccc(COc4cccc5c4CN([C@H]4CCC(=O)NC4=O)C5=O)c(F)c3)CC2)ccc1C#N` [CM-12] the figure was 0.0067 nM.

The molecule `N#Cc1ccc(N2CCN(Cc3ccc(COc4cccc5c4CN([C@H]4CCC(=O)NC4=O)C5=O)c(F)c3)CC2)c(C#N)c1` [CM-30] had a 50% inhibitory concentration (IC50) of 0.109 nM. For the molecule `N#Cc1ccc(N2CCN(Cc3ccc(COc4cccc5c4CN([C@H]4CCC(=O)NC4=O)C5=O)c(F)c3)CC2)cc1Cl` [CM-39], half-maximal inhibition (IC50) required 0.0631 nM.

In turn, `N#Cc1ccc(N2CCN(Cc3ccc(COc4cccc5c4CN([C@H]4CCC(=O)NC4=O)C5=O)c(F)c3)CC2)cc1C(F)(F)F` [CM-6, (S)-4-(4-(4-(((2-(2,6-dioxopiperidin-3-yl)-1-oxoisoindolin-4-yl)oxy)methyl)-3-fluorobenzyl)piperazin-1-yl)-2-(trifluoromethyl)benzonitrile] returned an IC50 of 0.0409 nM.

As for `N#Cc1ccc(N2CCN(Cc3ccc(COc4cccc5c4CN([C@H]4CCC(=O)NC4=O)C5=O)cc3F)CC2)c(F)c1` [CM-4, (S)-4-(4-(4-(((2-(2,6-dioxopiperidin-3-yl)-1-oxoisoindolin-4-yl)oxy)methyl)-2-fluorobenzyl)piperazin-1-yl)-3-fluorobenzonitrile], the half-maximal inhibitory concentration (IC50) was found to be 0.0153 nM. Next, `N#Cc1ccc(N2CCN(Cc3ccc(COc4cccc5c4CN(C4CCC(=O)NC4=O)C5=O)c(F)c3)CC2)nc1` (stereo not drawn) [CM-29]: 0.201 nM.

As for `CNC(=O)c1cc(C#N)ccc1N1CCN(Cc2ccc(COc3cccc4c3CN([C@H]3CCC(=O)NC3=O)C4=O)c(F)c2)CC1` [CM-34], the IC50 stood at 0.0766 nM. Take `N#Cc1ccc(N2CCN(Cc3ccc(COc4cccc5c4CN([C@H]4CCC(=O)NC4=O)C5=O)c(Cl)c3)CC2)c(F)c1` [CM-1]: half-maximal inhibition (IC50) required 0.102 nM. With `NC(=O)c1ccc(N2CCN(Cc3ccc(COc4cccc5c4CN([C@H]4CCC(=O)NC4=O)C5=O)cc3F)CC2)c(F)c1` [CM-23] the figure was 0.0581 nM; with `Cc1cc(N2CCN(Cc3ccc(COc4cccc5c4CN([C@H]4CCC(=O)NC4=O)C5=O)c(F)c3)CC2)ccc1C#N` [CM-11], 0.0091 nM.

With `NC(=O)c1ccc(N2CCN(Cc3ccc(COc4cccc5c4CN([C@H]4CCC(=O)NC4=O)C5=O)c(F)c3)CC2)c(F)c1` [CM-24], it took 0.0388 nM to reach half-maximal inhibition (IC50).

For `N#Cc1ccc(N2CCN(Cc3ccc(COc4cccc5c4CN([C@H]4CCC(=O)NC4=O)C5=O)c(F)c3)CC2)c(O)c1` [CM-40], half-maximal inhibition (IC50) was put at 0.378 nM.
